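The compound was tested at five concentrations on cells cultured in 96-well plates, with a 48-hour exposure period. GI50: concentration for 50% inhibition of growth.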 Calls of active or inactive are those of the source. No stated cut-off is given here; in the data, active = GI50 up to about 1.1 µM and inactive = higher.
How the values were obtained:
Experiment in all cases: inhibition of tumour cell growth, NCI panel, 48 h
A549 = system: A549
CAKI-1 = system: CAKI-1
HCT-15 = system: HCT-15
HOP-62 = system: HOP-62
IGROV-1 = system: IGROV-1
M14 = system: M14
NCI-H226 = system: NCI-H226
NCI-H460 = system: NCI-H460
NCI-H522 = system: NCI-H522
NCI/ADR-RES = system: NCI/ADR-RES
OVCAR-5 = system: OVCAR-5
RPMI-8226 = system: RPMI-8226
SF-539 = system: SF-539
SK-OV-3 = system: SK-OV-3
SN12C = system: SN12C
SNB-19 = system: SNB-19
SNB-75 = system: SNB-75
T47D = system: T47D
UACC-62 = system: UACC-62
UO-31 = system: UO-31

SMILES	GI50 (A549)	GI50 (CAKI-1)	GI50 (HCT-15)	GI50 (HOP-62)	GI50 (IGROV-1)	GI50 (M14)	GI50 (NCI-H226)	GI50 (NCI-H460)	GI50 (NCI-H522)	GI50 (NCI/ADR-RES)	GI50 (OVCAR-5)	GI50 (RPMI-8226)	GI50 (SF-539)	GI50 (SK-OV-3)	GI50 (SN12C)	GI50 (SNB-19)	GI50 (SNB-75)	GI50 (T47D)	GI50 (UACC-62)	GI50 (UO-31)
COc1ccc(CCN(C)C(=O)CC(C#N)(c2ccccc2)c2ccc(OC)c(OC)c2)cc1OC (stereo not given)	> 100 µM (inactive)	> 100 µM (inactive)	> 100 µM	> 100 µM (inactive)	> 100 µM (inactive)	> 100 µM (inactive)	> 100 µM (inactive)	> 100 µM (inactive)	> 94.6 µM (inactive)	> 100 µM (inactive)	> 100 µM (inactive)	> 46.9 µM (inactive)	> 100 µM (inactive)	> 100 µM (inactive)	> 100 µM (inactive)	> 100 µM (inactive)	> 100 µM (inactive)	> 100 µM (inactive)	> 100 µM (inactive)	> 74.6 µM (inactive)
O=C(NC(N1CCN(c2cc3c(cc2F)c(=O)c(C(=O)O)cn3C2CC2)CC1)(C(F)(F)F)C(F)(F)F)c1ccccc1	39.7 µM (inactive)	22.9 µM (inactive)	22.1 µM	38.5 µM (inactive)	36.3 µM (inactive)	47.4 µM (inactive)	34.1 µM (inactive)	32.1 µM (inactive)	17.7 µM (inactive)	46 µM (inactive)	26.7 µM (inactive)	27.7 µM (inactive)	22 µM (inactive)	34.1 µM (inactive)	36.1 µM (inactive)	33.9 µM (inactive)	33.6 µM (inactive)	35.6 µM (inactive)	33.3 µM (inactive)	30.5 µM (inactive)
COC(=O)C1Cc2cc3c(cc2C1=O)CCC3 (stereo not given)	> 100 µM (inactive)	> 100 µM (inactive)	> 100 µM	> 100 µM (inactive)	> 100 µM (inactive)	> 100 µM (inactive)	> 100 µM (inactive)	> 100 µM (inactive)	> 100 µM (inactive)	> 100 µM (inactive)	> 100 µM (inactive)	> 100 µM (inactive)	> 100 µM (inactive)	> 100 µM (inactive)	90.6 µM (inactive)	> 100 µM (inactive)	> 100 µM (inactive)	> 100 µM (inactive)	> 100 µM (inactive)	> 100 µM (inactive)
